Source: patent US12507703B2, “Methods, devices and compositions for preserving human milk” (The Trustees of Princeton University, priority 2023, dated 2025)
Where “and” joins values, the source holds several entries; their conditions need not be identical. Equal entries are not always repeated. Where two headings read alike, the source gives them in different places. Where a SMILES comes first, the peptide text is derived from it.

Assays:
lipase = assay: Lipase/lipolysis assay (EnzChek Lipase Substrate, quenched BODIPY-fatty acid conjugate) on stored human milk; conditions: for Lipolysis: 5 ounces unpasteurized human milk, frozen −20° C. 1 week
glycerol = assay: Glycerol-Glo assay of glycerol (byproduct of fat breakdown) in stored human milk; assay type: biochemical
Method: Eight human milk samples were tested to determine if glycerol, a byproduct of fat breakdown, accumulated after storage. Human milk samples were collected from the same donor anywhere between 1 month and 7 months after birth, frozen, and then thawed for testing. The samples were frozen on the same day as collection. […] The samples were thawed, and the presence of glycerol was detected by a glycerol-dependent, light-producing reaction presented as a measure of bioluminescence using the Glycerol-Glo™ Assay (Promega; catalog #: J3150) according to the manufacturer's instructions. A buffer with either 0 μM glycerol or 100 μM glycerol, alongside organic whole milk (cow) was used as a control. Glycerol content (bioluminescence) was measured using a BioTek Synergy Neo2 Hybrid Multimode Reader (Agilent; catalog #: BTNE02).

[1] = Total Antioxidant Capacity Assay Kit on stored human milk
Method: The compounds in Table 7 were added to fresh human milk and the samples were stored for 1 week at −20° C. […] Additionally, select compounds were tested for total Antioxidant capacity using the Total Antioxidant Capacity: Total Antioxidant Capacity Assay Kit (Abcam; catalog #: ab65329) in accordance with the manufacturer's instructions and presented as a relative ratio compared to fresh human milk. […] Lipase was considered inhibited with a RFU <400, glycerol was considered inhibited with an RLU <150,000, and total antioxidant capacity considered maintained with a ratio >0.75. Results presented in Table 7 represent a dose of 500 μg/mL for vitamin C, E and the carbonate/bicarbonates. All other compounds are at 20 mg/mL. Additionally, all compounds were tested for lipase and antioxidant capacity at multiple dilutions.

[2] = Table 7, 500 μg/mL, relative ratio compared to fresh human milk, maintained if >0.75

Row | Compound | Lipase (RFU) (lipase) | further results
1 | O=C(O)[C@H]1O[C@H](O[C@@H]2[C@H](O)[C@@H](O)[C@@H](O)O[C@@H]2C(=O)O)[C@H](O)[C@@H](O)[C@H]1O [Digalacturonic acid] | 264.075 RFU | Glycerol (RLU) (glycerol): 61741 RLU
2 | Polygalacturonic acid | 398.125 RFU | Glycerol (RLU) (glycerol): 120477 RLU
3 | Pectin | – | Total Antioxidant Capacity ([1]; Subject 1, 5 ounces unpasteurized human milk, frozen −20° C. 1 week, measure of absorbance): 0.204; Total Antioxidant Capacity ([1]; Subject 2, 5 ounces unpasteurized human milk, frozen −20° C. 1 week, measure of absorbance): 0.264; Total Antioxidant Capacity ([1]; Subject 3, 5 ounces unpasteurized human milk, frozen −20° C. 1 week, measure of absorbance): 0.364; Lipolysis (lipase; Subject 1): 209; Lipolysis (lipase; Subject 2): 525; Lipolysis (lipase; Subject 3): 280
4 | Triton X-100 [reference compound] | 370.282 RFU | Glycerol (RLU) (glycerol): 145670 RLU
5 | Perfected guar gum | 1061.697 RFU | Total Antioxidant Capacity [1]: 0.72; Glycerol (RLU) (glycerol): 838585 RLU
6 | Poly-D-galacturonic acid methyl ester (apple) | 611.342 RFU | Glycerol (RLU) (glycerol): 643757 RLU
7 | tocopherol [Vitamin E] | – | Total Antioxidant Capacity [1, 2]: 2
8 | O=C1O[C@H]([C@@H](O)CO)C(O)=C1O [Vitamin C, ascorbic acid] | – | Total Antioxidant Capacity [1, 2]: 2
9 | O=C(O)[C@H]1O[C@H](O[C@@H]2[C@H](O)[C@@H](O)[C@@H](O[C@@H]3[C@H](O)[C@@H](O)C(O)O[C@@H]3C(=O)O)O[C@@H]2C(=O)O)[C@H](O)[C@@H](O)[C@H]1O (stereo partly shown) [Trigalacturonic acid] | 352.972 RFU | Glycerol (RLU) (glycerol): 61363 RLU
10 | Gum arabic | 744.000 RFU | Total Antioxidant Capacity [1]: 0.64; Glycerol (RLU) (glycerol): 329275 RLU
11 | Locust bean gum | 1054.203 RFU | Total Antioxidant Capacity [1]: 0.55; Glycerol (RLU) (glycerol): 435487 RLU
12 | Poly-D-galacturonic acid methyl ester (citrus) | 320.660 RFU | Glycerol (RLU) (glycerol): 122743 RLU
13 | Guar gum | – | Total Antioxidant Capacity [1]: 0.59; Glycerol (RLU) (glycerol): 744165 RLU
14 | Tween 80 | – | Effect on lipase / lipolysis (in words) (lipase): reduced lipase and glycerol production; Hit in lipase inhibition screen (in words) (lipase): significantly inhibited lipase activity; Effect on glycerol production (in words) (glycerol): reduced lipase and glycerol production; Glycerol (RLU) (glycerol): 113807 RLU
15 | Lambda carageenan | 432.920 RFU | Glycerol (RLU) (glycerol): 140894 RLU
16 | O.O=C[C@H](O)[C@@H](O)[C@@H](O)[C@H](O)C(=O)O [D-(+)-Galacturonic acid monohydrate] | 324.895 RFU | Glycerol (RLU) (glycerol): 71322 RLU
17 | CC1(C)C[C@@H](O)[C@]2(C)CC[C@]3(C)C(=CC[C@@H]4[C@@]5(C)CC[C@H](O)[C@](C)(CO)[C@@H]5CC[C@]43C)[C@@H]2C1 [Soyasapogenol B] | 1146.412 RFU | –
18 | CC1(C)[C@H](C(=O)[O-])N2C(=O)C[C@H]2S1(=O)=O.[Na+] [Sulbactam (sodium)] | 1191.707 RFU | –
19 | Cl.NCCCC[C@H](N)C(=O)O [L-Lysine hydrochloride] | – | Lipase (RFU) (lipase; (hydrochloride)): 1184.747 RFU and 890.5892 RFU
20 | Nc1nc2c(ncn2[C@@H]2O[C@@H]3COP(=O)(O)O[C@H]3[C@H]2O)c(=O)[nH]1 [Guanosine-3′,5′-cyclic monophosphate] | 813.7484 RFU and 1141.322 RFU | –
21 | CCCCCCCC/C=C\CCCCCCCC(=O)O[C@H]1CC[C@@]2(C)C(=CC[C@H]3[C@@H]4CC[C@H]([C@H](C)CCCC(C)C)[C@@]4(C)CC[C@@H]32)C1 [Cholesteryl oleate] | 988.5488 RFU | –
22 | CCN(Cc1cccc(S(=O)(=O)[O-])c1)c1ccc(C(=C2C=CC(=[N+](CC)Cc3cccc(S(=O)(=O)[O-])c3)C=C2)c2ccccc2S(=O)(=O)[O-])cc1.[Na+].[Na+] [Brilliant Blue FCF] | 652.1115 RFU | –
23 | Oc1cc(O)c2c(c1)OC(c1ccc(O)c(O)c1)C(O)C2O (stereo not shown) [Leucocyanidin] | 957.6226 RFU | –
24 | COc1cc2ccc(=O)oc2c(OC)c1O [Isofraxidin] | 929.2612 RFU | –
25 | CC(C)CCC[C@@H](C)[C@H]1CC[C@H]2C3=CC=C4C[C@@H](O)CC[C@]4(C)[C@H]3CC[C@]12C [Compound 7-Dehydrocholesterol] | 820.8412 RFU | –
26 | CC1(C)CC[C@]2(C)CC[C@]3(C)C(=CC[C@@H]4[C@@]5(C)CC[C@H](O)C(C)(C)[C@@H]5CC[C@]43C)[C@@H]2C1 [β-Amyrin] | 1183.423 RFU | –
27 | CC1(C)S[C@@H]2[C@H](NC(=O)[C@H](N)c3ccc(O)cc3)C(=O)N2[C@H]1C(=O)[O-].[Na+] [Amoxicillin (sodium)] | 1082.26 RFU | –

Row | Compound | Lipase (RFU) (lipase) | further results
28 | O=C1O[C@H]([C@@H](O)CO)[C@H](O)[C@@H]1O [L-Gulono-1,4-lactone] | 1139.877 RFU | –
29 | CC(C(=O)c1ccc(O)cc1O)c1ccc(O)cc1 (stereo not shown) [O-Desmethylangolensin] | 864.3847 RFU | –
30 | CCCCCCCCCCCCCC(=O)O[C@H](CC(=O)[O-])C[N+](C)(C)C [Tetradecanoylcarnitine] | 951.8251 RFU | –
31 | O=C([O-])[C@H](O)[C@@H](O)[C@H](O)[C@H](O)CO.[Na+] [Gluconate (sodium)] | 1019.914 RFU | –
32 | C[C@@H]1CC[C@@]2(OC1)O[C@H]1C[C@H]3[C@@H]4CC[C@@H]5C[C@@H](O)CC[C@]5(C)[C@H]4CC[C@]3(C)[C@H]1[C@@H]2C [Smilagenin] | 790.1194 RFU | –
33 | O=C(O)CC(O)(C(=O)O)C(O)C(=O)O (stereo not shown) | 1053.487 RFU | –
34 | CC(C)=CCC[C@](C)(O[C@@H]1O[C@H](CO[C@@H]2O[C@H](CO)[C@@H](O)[C@H](O)[C@H]2O)[C@@H](O)[C@H](O)[C@H]1O)[C@H]1CC[C@]2(C)[C@@H]1[C@H](O)C[C@@H]1[C@@]3(C)CC[C@H](O[C@@H]4O[C@H](CO)[C@@H](O)[C@H](O)[C@H]4O[C@@H]4O[C@H](CO)[C@@H](O)[C@H](O)[C@H]4O)C(C)(C)[C@@H]3CC[C@]12C [Ginsenoside Rb1] | 830.8489 RFU | –
35 | Cc1ccc(C(C)C)c(O)c1 [Thymol] | 1327.554 RFU and 943.6199 RFU | –
36 | OC[C@H]1O[C@@H](O[C@H]2[C@H](O)[C@@H](O)[C@H](O)O[C@@H]2CO)[C@H](O)[C@@H](O)[C@@H]1O [D-Cellobiose] | 785.8282 RFU | –
37 | N#CCc1ccc(O)cc1 [4-Hydroxybenzyl cyanide] | 1050.204 RFU | –
38 | NC(Cc1c[nH]c2ccccc12)C(=O)O (racemic) [DL-Tryptophan] | 935.3545 RFU | –
39 | NCC(=O)N[C@@H](CCC(=O)O)C(=O)O [Glycyl-L-Glutamic Acid] (H-Gly-Glu-OH) | 846.2286 RFU | –
40 | Nc1nc2c(ncn2[C@@H]2O[C@H](COP(=O)([O-])[O-])[C@@H](O)[C@H]2O)c(=O)[nH]1.[Na+].[Na+] [5′-Guanylic acid (disodium salt)] | 910.9839 RFU | –
41 | O=C(/C=C/c1ccc(O)c(O)c1)O[C@H]1[C@H](O)C[C@](O)(C(=O)O)C[C@H]1O [Cryptochlorogenic acid] | 1264.679 RFU | –
42 | OC[C@H]1O[C@@H](O[C@H]2[C@H](O)[C@@H](O)[C@@H](O)O[C@@H]2CO)[C@H](O)[C@@H](O)[C@H]1O [Lactose] | 912.5223 RFU | –
43 | COc1c(O)cc2oc(-c3ccc(O)c(O)c3)cc(=O)c2c1O [Nepetin] | 666.0077 RFU | –
44 | COc1cc(O)c2c(c1)OC(c1ccc(OC)c(O)c1)CC2=O (stereo not shown) [Persicogenin] | 1028.526 RFU | –
45 | COc1c(CC=C(C)C)c(O)cc2oc(=O)c3c4ccc(O)cc4oc3c12 [Neoglycyrol] | 923.0229 RFU | –
46 | CC(C)(C(=O)O)C(=O)O [Dimethylmalonic acid] | 890.7612 RFU | –
47 | C=C[C@]1(C)CC[C@@H](C(=C)C)C[C@H]1C(=C)C [β-Elemene] | 1099.979 RFU | –
48 | C=C1C[C@@]23CC[C@H]4[C@@](C)(CCC[C@@]4(C)C(=O)O)[C@@H]2CC[C@]1(O[C@@H]1O[C@H](CO)[C@@H](O)[C@H](O)[C@H]1O[C@@H]1O[C@H](CO)[C@@H](O)[C@H](O)[C@H]1O)C3 [Steviolbioside] | 1061.907 RFU | –
49 | COc1ccc(-c2cc(=O)c3c(O)c(OC)c(OC)c(OC)c3o2)cc1OC [Compound 5-O-Demethylnobiletin] | 860.071 RFU | –
50 | N[C@@H](CC(=O)O)C(=O)O.[Ca] [Aspartic acid (calcium)] | – | Lipase (RFU) (lipase; (calcium)): 952.0587 RFU and 1027.013 RFU
51 | CCCCC/C=C\C/C=C\CCCCCCCC(=O)OCC(COC(=O)CCCCCCC/C=C\C/C=C\CCCCC)OC(=O)CCCCCCC/C=C\C/C=C\CCCCC [Trilinolein] | 834.4039 RFU | –
52 | C[C@H]1CC[C@]2(NC1)O[C@H]1C[C@H]3[C@@H]4CC[C@H]5C[C@@H](O)CC[C@]5(C)[C@H]4CC[C@]3(C)[C@H]1[C@@H]2C [Tomatidine] | 1057.071 RFU | –
53 | CC(=O)CCC=C(C)C [Sulcatone] | 1082.02 RFU | –
